{"source": "paper PMC3569060", "about": "(Molecular cancer therapeutics, 2012)", "key": {"hRR (hRR1 + hRR2)": {"target": "T1, hRR (hRR1 + hRR2) (Homo sapiens, UniProt P23921)", "T1 sequence (P23921 1-792)": "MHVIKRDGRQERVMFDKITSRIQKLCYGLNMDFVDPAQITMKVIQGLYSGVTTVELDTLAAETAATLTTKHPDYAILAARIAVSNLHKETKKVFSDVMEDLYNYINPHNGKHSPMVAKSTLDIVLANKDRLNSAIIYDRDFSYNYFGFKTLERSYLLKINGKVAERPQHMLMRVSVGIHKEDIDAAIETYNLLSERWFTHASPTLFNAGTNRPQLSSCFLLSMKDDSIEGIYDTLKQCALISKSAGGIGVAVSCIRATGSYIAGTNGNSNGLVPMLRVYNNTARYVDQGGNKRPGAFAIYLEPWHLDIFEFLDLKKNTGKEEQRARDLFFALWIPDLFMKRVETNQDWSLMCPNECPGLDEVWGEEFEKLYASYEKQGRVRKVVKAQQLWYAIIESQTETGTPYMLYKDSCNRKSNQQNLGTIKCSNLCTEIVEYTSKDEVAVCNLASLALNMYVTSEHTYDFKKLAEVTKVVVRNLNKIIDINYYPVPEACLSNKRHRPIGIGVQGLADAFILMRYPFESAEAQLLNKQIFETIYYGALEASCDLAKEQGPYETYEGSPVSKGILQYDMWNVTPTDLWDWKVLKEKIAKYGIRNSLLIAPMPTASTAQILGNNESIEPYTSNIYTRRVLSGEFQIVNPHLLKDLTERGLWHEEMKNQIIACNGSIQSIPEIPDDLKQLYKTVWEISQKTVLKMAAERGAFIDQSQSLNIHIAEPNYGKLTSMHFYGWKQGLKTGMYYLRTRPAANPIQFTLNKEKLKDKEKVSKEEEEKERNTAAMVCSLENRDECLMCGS", "T1 sequence (P31350 1-389 partner)": "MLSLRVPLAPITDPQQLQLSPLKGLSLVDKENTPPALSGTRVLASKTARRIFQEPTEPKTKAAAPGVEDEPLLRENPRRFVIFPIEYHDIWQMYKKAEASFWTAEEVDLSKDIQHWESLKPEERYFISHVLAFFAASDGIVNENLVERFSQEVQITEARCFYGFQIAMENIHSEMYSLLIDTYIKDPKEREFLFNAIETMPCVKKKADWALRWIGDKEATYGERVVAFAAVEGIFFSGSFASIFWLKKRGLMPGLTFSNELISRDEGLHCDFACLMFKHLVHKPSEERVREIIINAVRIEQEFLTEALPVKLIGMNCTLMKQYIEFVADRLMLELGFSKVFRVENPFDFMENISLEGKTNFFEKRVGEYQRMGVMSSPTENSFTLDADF", "assay_type": "biochemical"}, "ScRR1": {"target": "T2, ScRR1 (Saccharomyces cerevisiae, UniProt P21524)", "T2 sequence (P21524 1-888)": "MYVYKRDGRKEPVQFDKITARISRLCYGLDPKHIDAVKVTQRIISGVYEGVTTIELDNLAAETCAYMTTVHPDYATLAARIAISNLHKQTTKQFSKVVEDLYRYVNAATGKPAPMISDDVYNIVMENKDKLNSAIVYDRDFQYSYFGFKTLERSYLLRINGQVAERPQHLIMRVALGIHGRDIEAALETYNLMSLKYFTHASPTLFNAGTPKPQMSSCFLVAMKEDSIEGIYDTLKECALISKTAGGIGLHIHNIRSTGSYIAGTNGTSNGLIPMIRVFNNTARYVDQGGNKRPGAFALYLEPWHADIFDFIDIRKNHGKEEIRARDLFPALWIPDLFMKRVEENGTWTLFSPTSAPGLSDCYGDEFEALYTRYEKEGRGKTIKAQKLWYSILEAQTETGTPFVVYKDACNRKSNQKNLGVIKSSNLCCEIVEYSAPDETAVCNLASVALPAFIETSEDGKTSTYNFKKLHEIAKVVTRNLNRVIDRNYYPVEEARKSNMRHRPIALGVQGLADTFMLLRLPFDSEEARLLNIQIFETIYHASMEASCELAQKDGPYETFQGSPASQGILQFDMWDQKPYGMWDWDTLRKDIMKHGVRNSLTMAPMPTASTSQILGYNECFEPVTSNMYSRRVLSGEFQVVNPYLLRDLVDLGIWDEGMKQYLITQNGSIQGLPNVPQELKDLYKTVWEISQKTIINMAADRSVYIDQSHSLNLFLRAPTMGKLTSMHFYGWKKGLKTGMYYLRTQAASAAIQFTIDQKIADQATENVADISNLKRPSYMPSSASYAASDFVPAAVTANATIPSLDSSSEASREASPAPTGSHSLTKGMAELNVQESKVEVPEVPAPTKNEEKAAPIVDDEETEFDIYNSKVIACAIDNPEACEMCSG", "assay": "X-ray crystal structure, […] Å, crystal soaking", "assay_type": "binding", "conditions": "allosteric S-site; Mg2+ bound at alpha- and gamma-phosphates"}}}
{"compound": "O=[N+]([O-])c1ccc2c(ccn2[C@H]2C[C@H](O)[C@@H](COP(=O)(O)OP(=O)(O)OP(=O)(O)O)O2)c1", "note": "[5-NITP]", "values": [{"measurement": "IC50", "setting": "hRR (hRR1 + hRR2)", "result": "170 ± 5", "unit": "µM"}, {"measurement": "X-ray crystal structure, 2.3 Å, crystal soaking", "setting": "ScRR1", "result": "clearly shows electron density for 5-NITP bound at the S-site"}]}
